Source: US12509431B2, “1,4-dihydroquinazolinone compounds and uses thereof” (Edgewise Therapeutics, Inc., priority 2022, dated 2025)

Key:
Type in all cases: biochemical
Conditions in all cases: Table 8
[1] = test system: Porcine Atria myofibrils; assay: Myofibril ATPase assay (PK/LDH NADH-coupled), atria myofibrils
Outline: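 Values are EC25% (and, for inhibitors, EC50%) from 4-parameter logistic fits of activity normalized to vehicle wells. Rates came from linear regression of 340 nm kinetic reads (every 1.5-2 min, 75 min) of NADH-coupled ATP turnover by porcine atria myofibrils.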

[2] = test system: Rabbit Skeletal myofibrils (rabbit psoas muscle); assay: Myofibril ATPase assay (PK/LDH NADH-coupled), skeletal myofibrils
Outline: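 ATPase rate taken as linear-regression slope of A340 (NADH depletion through PK/LDH coupling) over a 75 min kinetic read, with psoas-derived rabbit skeletal myofibrils at pH 7.0. Four-parameter fits of vehicle-normalized activity give EC25 and, where reached, EC50.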

[3] = biological target: T1, Porcine Ventricle myofibrils (left ventricle of Yucatan minipigs) (Sus scrofa, UniProt P79293); assay: Myofibril ATPase assay (PK/LDH NADH-coupled), ventricle myofibrils
T1 construct: Myofibrils from porcine cardiac muscle was isolated from the left ventricle of Yucatan minipigs; tissue Exemplar Genetics; host or cells: left ventricle of Yucatan minipigs
Outline: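 NADH depletion (A340) coupled through pyruvate kinase/lactate dehydrogenase reports ATPase rate of porcine left-ventricle myofibrils over 75 min kinetic reads. Regression slopes, vehicle-normalized, fitted by 4-parameter logistic give EC25 and, where available, EC50.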

T1 sequence (P79293 whole entry): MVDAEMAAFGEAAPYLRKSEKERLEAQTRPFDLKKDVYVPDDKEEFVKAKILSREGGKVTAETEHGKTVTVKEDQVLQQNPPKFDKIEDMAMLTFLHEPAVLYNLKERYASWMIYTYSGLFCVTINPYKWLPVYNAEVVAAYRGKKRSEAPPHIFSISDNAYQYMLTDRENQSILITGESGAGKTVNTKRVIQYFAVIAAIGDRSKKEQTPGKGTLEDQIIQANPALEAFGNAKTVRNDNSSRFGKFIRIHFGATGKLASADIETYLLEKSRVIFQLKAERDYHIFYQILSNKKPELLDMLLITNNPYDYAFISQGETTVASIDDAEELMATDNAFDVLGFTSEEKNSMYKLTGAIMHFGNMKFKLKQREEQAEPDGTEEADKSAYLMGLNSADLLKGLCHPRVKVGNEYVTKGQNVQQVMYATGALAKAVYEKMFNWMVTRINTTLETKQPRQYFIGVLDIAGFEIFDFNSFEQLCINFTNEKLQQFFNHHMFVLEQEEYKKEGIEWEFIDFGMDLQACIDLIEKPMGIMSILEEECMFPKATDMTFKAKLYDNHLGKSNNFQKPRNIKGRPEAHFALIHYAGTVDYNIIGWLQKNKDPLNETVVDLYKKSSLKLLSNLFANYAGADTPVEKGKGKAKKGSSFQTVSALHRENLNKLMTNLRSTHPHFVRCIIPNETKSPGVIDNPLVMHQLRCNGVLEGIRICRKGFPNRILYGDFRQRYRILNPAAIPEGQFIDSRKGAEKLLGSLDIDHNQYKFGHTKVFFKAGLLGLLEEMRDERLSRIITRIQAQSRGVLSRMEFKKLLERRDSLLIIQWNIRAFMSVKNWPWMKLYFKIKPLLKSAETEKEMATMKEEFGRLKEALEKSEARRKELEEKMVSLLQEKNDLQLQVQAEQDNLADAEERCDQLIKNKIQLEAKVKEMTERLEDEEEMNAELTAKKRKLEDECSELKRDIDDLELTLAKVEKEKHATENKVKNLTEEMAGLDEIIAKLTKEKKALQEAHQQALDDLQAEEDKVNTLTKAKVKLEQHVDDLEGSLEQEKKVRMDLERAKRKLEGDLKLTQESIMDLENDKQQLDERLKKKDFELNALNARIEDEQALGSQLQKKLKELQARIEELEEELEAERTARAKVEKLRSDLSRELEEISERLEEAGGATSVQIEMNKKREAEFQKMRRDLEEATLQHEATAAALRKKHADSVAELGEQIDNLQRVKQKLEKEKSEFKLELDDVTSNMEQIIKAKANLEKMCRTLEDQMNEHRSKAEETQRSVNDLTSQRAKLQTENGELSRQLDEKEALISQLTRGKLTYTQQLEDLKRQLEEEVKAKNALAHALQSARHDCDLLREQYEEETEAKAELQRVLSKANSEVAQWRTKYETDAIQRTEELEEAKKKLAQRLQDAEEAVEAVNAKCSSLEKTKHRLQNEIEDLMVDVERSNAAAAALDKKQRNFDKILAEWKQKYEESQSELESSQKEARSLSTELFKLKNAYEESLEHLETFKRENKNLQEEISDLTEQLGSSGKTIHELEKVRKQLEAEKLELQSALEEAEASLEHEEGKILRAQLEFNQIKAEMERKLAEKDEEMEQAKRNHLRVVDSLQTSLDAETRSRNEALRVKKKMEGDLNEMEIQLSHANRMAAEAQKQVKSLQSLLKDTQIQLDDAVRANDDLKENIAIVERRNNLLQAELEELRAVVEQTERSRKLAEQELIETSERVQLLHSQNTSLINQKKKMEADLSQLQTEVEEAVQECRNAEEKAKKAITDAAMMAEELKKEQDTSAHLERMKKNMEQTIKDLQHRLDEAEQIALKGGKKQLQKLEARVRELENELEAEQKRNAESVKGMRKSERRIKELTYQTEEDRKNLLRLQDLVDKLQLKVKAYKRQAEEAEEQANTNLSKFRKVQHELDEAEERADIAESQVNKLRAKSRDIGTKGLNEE

Row | SMILES | Porcine Atria IC25 [1] [µM] | Rabbit Psoas IC25 [2] [µM] | Porcine Ventricle IC25 [3] [µM]
1 | C[C@@H](NC(=O)CN1Cc2c(ccc(F)c2F)NC1=O)c1ccc(C#N)cn1 [Compound B135] | 0.51 | 1.618 | 15.88
2 | C[C@H](NC(=O)CN1Cc2c(ccc(F)c2F)NC1=O)c1ccc(C#N)cn1 [Compound B136] | 0.42 | 0.0645 | 0.764
3 | C[C@@H](NC(=O)CN1C(=O)Nc2ccc(F)cc2C12CC2)c1ccc(C#N)cn1 [Compound B137] | 0.12 | 0.1155 | 0.6995
4 | C[C@H](NC(=O)CN1C(=O)Nc2ccc(F)cc2C12CC2)c1ccc(C#N)cn1 [Compound B138] | 1.53 | 100 | 100
5 | N#Cc1c(F)ccc2c1CN(CC(=O)N[C@@H]1COc3cc(F)cc(F)c31)C(=O)N2 [Compound B139] | 0.05 | 0.01393 | 0.1215
6 | N#Cc1c(F)ccc2c1CN(CC(=O)N[C@H]1COc3cc(F)cc(F)c31)C(=O)N2 [Compound B140] | 1.10 | 1.501 | 55.23
7 | C[C@@H](NC(=O)CN1Cc2cc(C#N)ccc2NC1=O)c1ncc(C#N)cc1F [Compound B143] | 100.00 | 100 | 100
8 | C[C@H](NC(=O)CN1Cc2cc(C#N)ccc2NC1=O)c1ncc(C#N)cc1F [Compound B144, 2-(6-cyano-2-oxo-1,4-dihydroquinazolin-3-yl)-N-[(1S)-1-(5-cyano-3-fluoropyridin-2-yl)ethyl]acetamide] | 0.72 | 2.787 | 47.42
9 | O=C(CN1Cc2cc(F)ccc2NC1=O)N[C@H]1COc2cc(F)cc(F)c21 [Compound B146] | 1.52 | 5.163 | 68.33
10 | O=C(CN1Cc2c(ccc(F)c2F)NC1=O)N[C@H]1COc2cc(F)cc(F)c21 [Compound B148] | 0.85 | 0.4985 | 5.833
11 | C[C@@H](NC(=O)CN1C(=O)Nc2ccc(C#N)cc2C12CC2)c1ncc(F)cc1F [Compound B149] | 73.55 | 0.1803 | 100
12 | C[C@H](NC(=O)CN1C(=O)Nc2ccc(C#N)cc2C12CC2)c1ncc(F)cc1F [Compound B150] | 0.98 | 100 | 22.65
13 | C[C@@H](NC(=O)CN1Cc2c(C#N)cccc2NC1=O)c1ncc(F)cc1F [Compound B153] | 16.33 | 0.5161 | 100
14 | C[C@H](NC(=O)CN1Cc2c(C#N)cccc2NC1=O)c1ncc(F)cc1F [Compound B154] | 0.18 | 0.0315 | 2.518
15 | C[C@H](NC(=O)CN1C(=O)Nc2ccccc2[C@H]1C)c1ccc(F)cc1F [Compound B155] | 0.43 | 0.0851 | 3.17
16 | C[C@H](NC(=O)CN1C(=O)Nc2ccccc2[C@H]1C)c1ccc(F)cc1F [Compound B156] | 4.12 | 0.232 | 10.58
17 | CC(NC(=O)CN1Cc2cc(C#N)ccc2NC1=O)c1ncc(C#N)cc1F (stereo not drawn) [Compound B157] | 5.96 | 100 | 100
18 | C[C@@H]1c2ccccc2NC(=O)N1CC(=O)N[C@H](C)c1ncc(F)cc1F [Compound B158] | 100.00 | 18.11 | 100
19 | C[C@@H](NC(=O)CN1C(=O)Nc2ccccc2[C@@H]1C)c1ncc(F)cc1F [Compound B159] | 100.00 | 100 | 100

The remaining lines, values ahead:

Row | Porcine Atria IC25 [1] [µM] | Rabbit Psoas IC25 [2] [µM] | Porcine Ventricle IC25 [3] [µM] | SMILES
20 | 0.36 | 0.3154 | 4.311 | C[C@H](NC(=O)CN1Cc2c(ccc(C#N)c2F)NC1=O)c1ccc(F)cc1F [Compound B160, 2-(6-Cyano-5-fluoro-2-oxo-1,4-dihydroquinazolin-3-yl)-N-[(1S)-1-(2,4-difluorophenyl)ethyl]acetamide]
21 | 4.15 | 1.295 | 45.8 | C[C@H](NC(=O)CN1C(=O)Nc2ccccc2[C@H]1C)c1ncc(F)cc1F [Compound B161]
22 | 52.14 | 0.7039 | 100 | C[C@H](NC(=O)CN1C(=O)Nc2ccccc2[C@@H]1C)c1ncc(F)cc1F [Compound B162]
23 | 2.08 | 0.4728 | 31.68 | C[C@@H](NC(=O)CN1C(=O)Nc2ccc(F)cc2C12CC2)c1ncc(F)cc1F [Compound B163]
24 | 0.10 | 0.0273 | 0.3444 | C[C@H](NC(=O)CN1C(=O)Nc2ccc(F)cc2C12CC2)c1ncc(F)cc1F [Compound B164]
25 | 17.36 | 100 | 100 | C[C@@H]1c2ccccc2NC(=O)N1CC(=O)N[C@@H](CO)c1ncc(F)cc1F [Compound B165]
26 | 51.60 | 6.966 | 100 | C[C@H]1c2ccccc2NC(=O)N1CC(=O)N[C@@H](CO)c1ncc(F)cc1F [Compound B166]
27 | 100.00 | 100 | 100 | C[C@@H](C(=O)N[C@H](CO)c1ncc(F)cc1F)N1Cc2c(Cl)cccc2NC1=O [Compound B167]
28 | 100.00 | 100 | 100 | C[C@H](C(=O)N[C@H](CO)c1ncc(F)cc1F)N1Cc2c(Cl)cccc2NC1=O [Compound B168]
29 | 0.15 | 0.3955 | 1.354 | C[C@@H](C(=O)N[C@@H](CO)c1ncc(F)cc1F)N1Cc2c(Cl)cccc2NC1=O [Compound B169]
30 | 2.85 | 9.578 | 31.8 | C[C@H](C(=O)N[C@@H](CO)c1ncc(F)cc1F)N1Cc2c(Cl)cccc2NC1=O [Compound B170]
31 | 19.79 | 7.545 | 100 | C[C@@H](NC(=O)CN1Cc2cc(F)ccc2NC1=O)c1ccc(C#N)cn1 [Compound B171]
32 | 100.00 | 100 | 100 | C[C@@H](NC(=O)CN1Cc2cc(F)ccc2NC1=O)c1ncccc1F [Compound B173]
33 | 46.54 | 83 | 100 | C[C@H](NC(=O)CN1Cc2cc(F)ccc2NC1=O)c1ncccc1F [Compound B174]
34 | 100.00 | 100 | 100 | O=C(CN1Cc2c(ccc(F)c2F)NC1=O)N[C@H](CO)c1ncc(F)cc1F [Compound B175]
35 | 0.06 | 0.08998 | 0.3872 | O=C(CN1Cc2c(ccc(F)c2F)NC1=O)N[C@@H](CO)c1ncc(F)cc1F [Compound B176]
36 | 100.00 | 68.51 | 100 | C[C@@H](NC(=O)CN1Cc2cc(F)ccc2NC1=O)c1ccc(F)cc1F [Compound B177]
37 | 3.48 | 3.38 | 100 | COc1cnc([C@@H](C)NC(=O)CN2Cc3cc(F)ccc3NC2=O)c(F)c1 [Compound B178]
38 | 100.00 | 100 | 100 | O=C(CN1Cc2cc(F)ccc2NC1=O)N[C@H](CO)c1ncc(F)cc1F [Compound B180]
39 | 2.28 | 1.159 | 100 | Cc1cccnc1[C@@H](C)NC(=O)CN1Cc2c(ccc(F)c2F)NC1=O [Compound B182]
40 | 100.00 | 100 | 100 | Cc1cccnc1[C@H](C)NC(=O)CN1Cc2c(ccc(F)c2F)NC1=O [Compound B183]
41 | 57.48 | 100 | 56.86 | COc1cccnc1[C@@H](C)NC(=O)CN1Cc2c(ccc(F)c2F)NC1=O [Compound B184]
42 | 100.00 | 100 | 100 | COc1cccnc1[C@H](C)NC(=O)CN1Cc2c(ccc(F)c2F)NC1=O [Compound B185]
43 | 100.00 | 100 | 100 | COc1cccnc1[C@@H](C)NC(=O)CN1Cc2cc(F)ccc2NC1=O [Compound B186]
